Test results: ChEMBL document CHEMBL4177620, “A comparative study of warheads for design of cysteine protease inhibitors” (Bioorg Med Chem Lett, 2017)
pEC50, pKi: −log10 of the molar value. Active and inactive are the calls of the source. No cut-off for these calls is given here. Non-standard residues stand in square brackets, D forms with d. Residues, ends and D or L forms follow the SMILES beside them. *: point of attachment. Cbz = O=C(OCc1ccccc1)*; Ac3c = NC1(C(=O)O)CC1

Experiments:
[1] = Cytotoxicity against human U2OS cells; format: cell-based
[2] = molecular target: Cruzipain (Trypanosoma cruzi, UniProt P25779); experiment: Inhibition of recombinant Trypanosoma cruzi cruzain using Z-phe-Arg-7-amido-4-methylcoumarin as substrate by fluorometric method
[3] = tested on: Trypanosoma cruzi; experiment: Antitrypanosomal activity against amastigote form of Trypanosoma cruzi Y infected in human U2OS cells; format: functional, organism-based
[4] = molecular target: Cruzipain (Trypanosoma cruzi) (UniProt P25779); experiment: Reversible inhibition of recombinant Trypanosoma cruzi cruzain using Z-phe-Arg-7-amido-4-methylcoumarin as substrate by fluorometric method
[5] = molecular target: Cruzipain (Trypanosoma cruzi) (UniProt P25779); experiment: Inhibition of recombinant Trypanosoma cruzi cruzain assessed as dissociation rate constant using Z-phe-Arg-7-amido-4-methylcoumarin as substrate by fluorometric method
[6] = molecular target: Cruzipain (Trypanosoma cruzi) (UniProt P25779); experiment: Ratio of Kinact to Ki for recombinant Trypanosoma cruzi cruzain using Z-phe-Arg-7-amido-4-methylcoumarin as substrate
[7] = molecular target: Cruzipain (Trypanosoma cruzi) (UniProt P25779); experiment: Irreversible inhibition of recombinant Trypanosoma cruzi cruzain using Z-phe-Arg-7-amido-4-methylcoumarin as substrate by fluorometric method

Sequence of Cruzipain (P25779 whole entry): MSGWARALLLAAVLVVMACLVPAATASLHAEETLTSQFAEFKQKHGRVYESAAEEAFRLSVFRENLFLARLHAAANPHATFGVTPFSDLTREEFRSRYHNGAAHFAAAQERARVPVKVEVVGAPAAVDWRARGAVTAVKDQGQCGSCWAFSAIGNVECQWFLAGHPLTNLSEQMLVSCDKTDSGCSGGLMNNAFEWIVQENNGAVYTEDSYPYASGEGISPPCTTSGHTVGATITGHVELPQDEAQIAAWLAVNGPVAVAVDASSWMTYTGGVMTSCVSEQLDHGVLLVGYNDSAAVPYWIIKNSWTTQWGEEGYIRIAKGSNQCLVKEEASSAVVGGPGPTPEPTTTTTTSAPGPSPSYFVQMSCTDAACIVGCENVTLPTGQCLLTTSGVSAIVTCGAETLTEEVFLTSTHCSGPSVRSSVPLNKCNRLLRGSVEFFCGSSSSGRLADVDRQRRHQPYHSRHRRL
Sequence of Cruzipain (Trypanosoma cruzi) (P25779 123-467 limits assumed): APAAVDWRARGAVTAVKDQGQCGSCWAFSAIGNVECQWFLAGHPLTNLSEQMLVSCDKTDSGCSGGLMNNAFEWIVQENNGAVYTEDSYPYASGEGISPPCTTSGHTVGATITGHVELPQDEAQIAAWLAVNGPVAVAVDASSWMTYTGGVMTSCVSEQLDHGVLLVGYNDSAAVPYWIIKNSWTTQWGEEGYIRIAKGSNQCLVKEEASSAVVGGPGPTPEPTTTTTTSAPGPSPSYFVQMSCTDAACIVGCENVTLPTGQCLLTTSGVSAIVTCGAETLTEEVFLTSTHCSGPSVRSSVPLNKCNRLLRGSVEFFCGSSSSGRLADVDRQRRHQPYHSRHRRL

Row | SMILES | inhibition [4] | koff [5] | Ratio [6] | inhibition [7] | CC50 [1] | pKi [2] | pEC50 [3]
1 | Cc1coc(NC(=O)[C@H](Cc2ccccc2)NC(=O)OCc2ccccc2)n1 |  |  |  |  | > 100 µM | 4.60 | 4.40
2 | CCOC(=O)/C=C/C1(NC(=O)[C@H](Cc2ccccc2)NC(=O)OCc2ccccc2)CC1 | Active |  |  |  |  | 3.90 | 
3 | CCN(CC)C(=O)/C=C/C1(NC(=O)[C@H](Cc2ccccc2)NC(=O)OCc2ccccc2)CC1 | Active |  |  |  |  | 3.70 | 
4 | O=C(N[C@@H](Cc1ccccc1)C(=O)Nc1cnoc1)OCc1ccccc1 |  |  |  |  | > 100 µM | 5.00 | < 4.00
5 | O=CC1(NC(=O)[C@H](Cc2ccccc2)NC(=O)OCc2ccccc2)CC1 (Cbz-Phe-[Ac3c]-aldehyde) |  |  |  |  |  | 5.40 | 
6 | CN(C#N)N(C)C(=O)[C@H](Cc1ccccc1)NC(=O)OCc1ccccc1 | Active | 0.011 s⁻¹ |  |  | 10 µM | 8.70 | 5.30
7 | CC(C)C[C@H](NC(=O)c1cc(C(C)(C)C)nn1C)C(=O)N(C)N(C)C#N |  |  |  |  |  |  | 4.90
8 | CNC(=O)/C=C/C1(NC(=O)[C@H](Cc2ccccc2)NC(=O)OCc2ccccc2)CC1 | Active |  |  |  |  | 3.40 | 
9 | N#CC1(NC(=O)[C@H](Cc2ccccc2)NC(=O)OCc2ccccc2)CC1 |  |  |  |  | > 100 µM | 5.20 | < 4.00

Second part, led by results:

Row | inhibition [4] | koff [5] | Ratio [6] | inhibition [7] | SMILES | CC50 [1] | pKi [2] | pEC50 [3]
10 |  | 0.012 s⁻¹ |  |  | CN(C#N)N(C)C(=O)[C@H](Cc1ccccc1)NC(=O)c1cc(C(C)(C)C)nn1C |  | 8.80 | 
11 | Active |  |  |  | O=CCNC(=O)[C@H](Cc1ccccc1)NC(=O)OCc1ccccc1 (Cbz-Phe-Gly-aldehyde) |  | 8.10 | 
12 | Active |  |  |  | CCOC(=O)/C=C\CNC(=O)[C@H](Cc1ccccc1)NC(=O)OCc1ccccc1 |  | 5.20 | 
13 | Active |  |  |  | N#CCNC(=O)[C@H](Cc1ccccc1)NC(=O)OCc1ccccc1 | > 100 µM |  | < 4.00
14 | Active |  |  |  | O=C(N[C@@H](Cc1ccccc1)C(=O)NCC=NO)OCc1ccccc1 |  | 7.00 | 
15 | Active | 0.0053 s⁻¹ |  |  | CC(C)C[C@H](NC(=O)OC(C)(C)C)C(=O)N(C)N(C)C#N | 50.1 µM | 8.00 | 4.40
16 |  |  | 9.8 ×10³ /s/M | Active | CCOC(=O)/C=C/CNC(=O)[C@H](Cc1ccccc1)NC(=O)OCc1ccccc1 |  | 5.80 | 
